This is an account of results in patent US20110129935A1, “PROTEIN STABILITY ASSAY USING A FLUORESCENT REPORTER OF PROTEIN FOLDING” (James Cook University, priority 2008, published 2011).

Test [1] deals with CAT-GFP (Escherichia coli, UniProt P62577). The format is binding. Conditions: 10 mM chloramphenicol, 9.2 mM ampicillin or 6.4% ethanol. As to the method:
(§1) Protein samples (6 or 10 μl) were incubated along a temperature gradient in a thermocycler for 5 minutes or 30 minutes for the determination of Tagg, or at a constant temperature and increasing times to determine kagg. After heat treatment and centrifugation as described above, 3 or 5 μl of supernatant were transferred to a black 96-well plate (Nunclon, Nunc, Rochester, N.Y., USA), diluted with 47 or 50 μl respectively of Buffer A or Buffer B and the fluorescent Ffold was determined with a fluorescence plate reader (Victor V Wallace, Perkin-Elmer, Melbourne VIC, Australia). The excitation and emission filters were set at 355 nm and 535 nm respectively, with 40 nm band-width. Data were normalized against the fluorescence of an untreated sample.
To determine the effect of ligands, CAT-GFP reaction premix contained 9.2 μl of CAT-GFP (71 μM in Buffer A), 51.6 μl of Buffer A and 4.2 μl of either 50 mg/ml chloramphenicol in ethanol or 50 mg/ml ampicillin in water. GK-GFP reaction premix contained 9.3 μl of GK-GFP (70 μM), 49.20 of Buffer A and 6.5 μl of either Buffer A+10 mM glycerol or Buffer A+10 mM glucose. Reaction volume was 10 μl and 5 μl of the soluble fraction was analysed by plate reader after centrifugation.
The S method was then further developed to evaluate the effect of ligand binding and additives in a rapid throughput format for the three test proteins using replicates of single timepoints (FIG. 6a-6c). […] Indeed, the temperature used to test for chloramphenicol binding had to be kept quite low and for a short time as GFP would have been destabilized in more stringent conditions. […] This non-specific stabilization could also be attributed to the low stringency of the conditions.

For test [2], the target named is Tus-GFP (Escherichia coli, UniProt P16525, Q80R). As to the kind of experiment: Isothermal aggregation of Tus-GFP with additives (kagg, S method). Set-up: species or system E. coli. The conditions noted are these: 46° C., 25% glycerol in 0.5× Buffer B. As to the method:
as §1, with “sample. […]” for “sample.”
The kagg (s^−1) measured the loss of fluorescence of the soluble fraction of proteins over time. The kagg values were determined by the exponential fit of normalized Ffold as follows:
To evaluate the kinetic parameters of the system, a 96-well plate format was designed that enabled measurement of the residual Ffold of Tus-GFP over time. Isothermal aggregation reactions were monitored at 46° C. to quantify the effect of stabilizing or destabilizing salts and additives on the kagg of Tus-GFP (FIG. 3). […]

For test [3], the target named is GK-GFP (Escherichia coli, UniProt P0A6F3). As to the kind of experiment: Rapid throughput S method, Ffold of GK-GFP with ligands or other proteins. The format is binding, E. coli. Conditions: 1 mM glycerol in presence of BSA 15 μM. The method, then:
as §1
To determine the effect of ligands, CAT-GFP reaction premix contained 9.2 μl of CAT-GFP (71 μM in Buffer A), 51.6 μl of Buffer A and 4.2 μl of either 50 mg/ml chloramphenicol in ethanol or 50 mg/ml ampicillin in water. GK-GFP reaction premix contained 9.3 μl of GK-GFP (70 μM), 49.20 of Buffer A and 6.5 μl of either Buffer A+10 mM glycerol or Buffer A+10 mM glucose. Reaction volume was 10 μl and 5 μl of the soluble fraction was analysed by plate reader after centrifugation. […]

Chain of GK-GFP (P0A6F3 other isoform, or with tags, fused parts or gaps): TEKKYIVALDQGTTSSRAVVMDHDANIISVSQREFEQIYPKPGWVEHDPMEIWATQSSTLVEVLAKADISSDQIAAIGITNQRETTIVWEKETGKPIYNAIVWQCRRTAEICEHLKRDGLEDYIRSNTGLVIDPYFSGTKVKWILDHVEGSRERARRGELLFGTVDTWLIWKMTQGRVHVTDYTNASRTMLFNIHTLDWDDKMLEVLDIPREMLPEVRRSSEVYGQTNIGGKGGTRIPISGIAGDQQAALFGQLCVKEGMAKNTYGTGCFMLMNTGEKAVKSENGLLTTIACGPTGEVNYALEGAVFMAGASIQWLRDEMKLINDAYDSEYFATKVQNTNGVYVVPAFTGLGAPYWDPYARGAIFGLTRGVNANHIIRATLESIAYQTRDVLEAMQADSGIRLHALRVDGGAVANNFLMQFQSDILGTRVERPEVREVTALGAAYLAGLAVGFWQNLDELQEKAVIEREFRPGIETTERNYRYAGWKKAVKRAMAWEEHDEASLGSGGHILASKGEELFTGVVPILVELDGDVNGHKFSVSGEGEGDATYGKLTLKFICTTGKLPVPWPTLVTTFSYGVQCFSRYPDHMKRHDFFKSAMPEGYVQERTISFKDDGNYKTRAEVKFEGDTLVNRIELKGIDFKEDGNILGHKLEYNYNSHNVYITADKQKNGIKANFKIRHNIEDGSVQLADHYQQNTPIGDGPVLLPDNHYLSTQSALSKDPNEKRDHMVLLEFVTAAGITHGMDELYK

Regarding `CC1(C)S[C@@H]2[C@H](NC(=O)[C@H](N)c3ccccc3)C(=O)N2[C@H]1C(=O)O` [ampicillin], the “stabilization of CAT-GFP (Ffold)” value in test [1] is “moderate stabilization”.
On the same count and under the same terms, under `O=C(N[C@H](CO)[C@H](O)c1ccc([N+](=O)[O-])cc1)C(Cl)Cl` [chloramphenicol] stands “stabilizing”.
The same measure, in the same setting: under `CCO` [ethanol] stands “almost the same stabilizing effect”.
Regarding `OCC(O)CO` [glycerol], the “stabilization effect on Tus-GFP (kagg)” value in test [2] is reported as “largest stabilization effect”. In test [3], the “stabilization of GK-GFP (Ffold)” value is recorded as “almost completely stabilized”.
